Source: patent publication US20120059162A1, “FUSED IMIDAZOLE DERIVATIVE HAVING TTK INHIBITORY ACTION” (Oncotherapy Science, Inc., priority 2009, published 2012)

Legend:
TTK = target: T1, TTK (Homo sapiens, UniProt P33981); assay: TTK assay: screening of TTK kinase activity suppressing action using p38 MAPK peptide; assay type: biochemical; settings: read-out: TTK IC50
T1 sequence (P33981 1-857): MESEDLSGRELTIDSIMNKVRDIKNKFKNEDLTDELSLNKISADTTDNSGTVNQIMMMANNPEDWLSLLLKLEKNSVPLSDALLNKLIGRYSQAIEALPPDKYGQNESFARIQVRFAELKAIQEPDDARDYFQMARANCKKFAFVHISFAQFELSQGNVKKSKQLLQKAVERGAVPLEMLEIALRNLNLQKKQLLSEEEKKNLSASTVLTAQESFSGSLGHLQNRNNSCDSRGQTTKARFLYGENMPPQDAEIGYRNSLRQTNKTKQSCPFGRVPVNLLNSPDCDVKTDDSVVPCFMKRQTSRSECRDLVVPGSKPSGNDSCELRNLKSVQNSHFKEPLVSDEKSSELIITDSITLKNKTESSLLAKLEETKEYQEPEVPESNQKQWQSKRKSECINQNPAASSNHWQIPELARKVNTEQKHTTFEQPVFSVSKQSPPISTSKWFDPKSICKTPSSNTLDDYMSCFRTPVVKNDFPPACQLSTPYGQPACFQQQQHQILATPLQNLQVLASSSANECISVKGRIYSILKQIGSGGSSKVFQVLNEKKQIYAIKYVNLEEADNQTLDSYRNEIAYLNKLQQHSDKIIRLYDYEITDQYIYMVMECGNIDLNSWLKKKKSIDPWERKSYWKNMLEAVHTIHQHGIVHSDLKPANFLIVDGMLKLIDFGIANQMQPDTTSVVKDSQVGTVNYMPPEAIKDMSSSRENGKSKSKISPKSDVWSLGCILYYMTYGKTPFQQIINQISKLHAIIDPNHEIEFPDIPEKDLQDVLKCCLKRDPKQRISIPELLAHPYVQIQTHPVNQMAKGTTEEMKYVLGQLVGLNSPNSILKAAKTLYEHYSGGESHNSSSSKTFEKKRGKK
Outline: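 TTK (4 μg/ml in enzyme solution) mixed with p38 MAPK peptide and ATP (each 60 μM in substrate solution) in Tris-HCl pH 7.5 with MgCl2, DTT, Na3VO4, β-glycerophosphate, BSA. Reaction aliquot captured on NeutrAvidin plate, detected with Eu-labelled anti-mouse IgG by time-resolved fluorescence; inhibition relative to no-compound signal.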

A549 = A549 assay: screening of cancer cell growth inhibiting compound; assay type: cell-based; settings: Homo sapiens; A549 cells; values given as IC50 intervals; read-out: A549 IC50
Outline: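 A549 cells (1×10^4/ml) in D-MEM with 10% FBS were pre-incubated one day at 37 °C, then exposed to compound dilutions for three further days. Viable cell number read by WST-8 (1–4 hours), absorbance 450 nm (reference 620 nm); inhibition calculated relative to untreated wells.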

Compound	IC50 (TTK) [µM]	IC50 (A549) [µM]
O=C(NC1CC1)c1ccc(-c2cnc3c(NCC4CCOCC4)cc(OCC45CC6CC(CC(C6)C4)C5)nn23)cc1 [Example 2-190]	0.0161	1 to 10
O=C(NC1CC1)c1ccc(-c2cnc3c(NCC4CCOCC4)cc(OC4C5CC6CC(C5)CC4C6)nn23)cc1 (centres unmarked) [Example 2-191]	0.0039	0.05 to 0.5
CC1(Oc2cc(NCC3CCOCC3)c3ncc(-c4ccc(C(=O)NC5CC5)cc4)n3n2)CCCC1 [Example 2-192]	0.0021	0.05 to 0.5
O=C(NC1CC1)c1ccc(-c2cnc3c(NCC4CCOCC4)cc(OC45CC6CC(CC(C6)C4)C5)nn23)cc1 [Example 2-193]	0.006	0.05 to 0.5
N#Cc1ccc(-c2cc(NCC3CCOCC3)c3ncc(-c4ccc(C(=O)NC5CC5)cc4)n3n2)cn1 [Example 2-199]	0.0074	0.05 to 0.5
Cc1cc(C#N)ccc1-c1cc(NCC2CCOCC2)c2ncc(-c3ccc(C(=O)NC4CC4)cc3)n2n1 [Example 2-202]	0.0035	0.05 to 0.5
N#Cc1cccc(-c2cc(NCC3CCOCC3)c3ncc(-c4ccc(C(=O)NC5CC5)cc4)n3n2)c1 [Example 2-203]	0.0047	0.05 to 0.5
COc1cc(C#N)ccc1-c1cc(NCC2CCOCC2)c2ncc(-c3ccc(C(=O)NC4CC4)cc3)n2n1 [Example 2-205]	0.0045	≤ 0.05
N#Cc1ccc(-c2cc(NCC3CCOCC3)c3ncc(-c4ccc(C(=O)NC5CC5)cc4)n3n2)c(Cl)c1 [Example 2-206]	0.0028	0.05 to 0.5
O=C(NC1CC1)c1ccc(-c2cnc3c(NCC4CCOCC4)cc(C=C4CCCCC4)nn23)cc1 [Example 2-207]	0.0057	0.5 to 1
O=C(NC1CC1)c1ccc(-c2cnc3c(NCC4CCOCC4)cc(CC4CCCCC4)nn23)cc1 [Example 2-208]	0.0071	0.05 to 0.5
O=C(NC1CC1)c1ccc(-c2cnc3c(NCC4CCOCC4)cc(C=C4CCCC4)nn23)cc1 [Example 2-209]	0.0082	0.05 to 0.5
O=C(NC1CC1)c1ccc(-c2cnc3c(NCC4CCOCC4)cc(CC4CCCC4)nn23)cc1 [Example 2-210]	0.0203	1 to 10
O=C(NC1CC1)c1ccc(-c2cnc3c(NCC4CCOCC4)cc(C4=CCNCC4)nn23)cc1 [Example 2-211]	0.0083	0.05 to 0.5

The remaining lines, values ahead:

IC50 (TTK) [µM]	IC50 (A549) [µM]	Compound
0.0231	1 to 10	O=C(NC1CC1)c1ccc(-c2cnc3c(NCC4CCOCC4)cc(C4CCNCC4)nn23)cc1 [Example 2-212]
0.012	0.05 to 0.5	CC(=O)N1CC=C(c2cc(NCC3CCOCC3)c3ncc(-c4ccc(C(=O)NC5CC5)cc4)n3n2)CC1 [Example 2-213]
0.0027	0.05 to 0.5	O=C(NC1CC1)c1ccc(-c2cnc3c(NCC4CCOCC4)c(Cl)c(OC4CCCC4)nn23)cc1 [Example 2-216]
0.0139	1 to 10	O=C(NC1CC1)c1ccc(-c2cnc3c(NCC4CCOCC4)c(F)c(OC4CCCC4)nn23)cc1 [Example 2-217]
0.0126	0.5 to 1	O=C(NC1CC1)c1ccc(-c2cnc3c(NCC4CCOCC4)c(Cl)c(NC4CCCC4)nn23)cc1 [Example 2-218]
0.0043	≤ 0.05	CC(C)(Nc1cc(NCC2CCOCC2)c2ncc(-c3ccc(C(=O)NC4CC4)c(F)c3)n2n1)C(F)(F)F [Example 2-219]
0.0039	≤ 0.05	CC(C)(Nc1cc(NCC2CCOCC2)c2ncc(-c3ccc(C(=O)NC4CC4)c(Cl)c3)n2n1)C(F)(F)F [Example 2-220]
0.0097	0.05 to 0.5	Nc1cc(C(=O)NC2CC2)ccc1-c1cnc2c(NCC3CCOCC3)cc(NC3CCCC3)nn12 [Example 2-225]
0.0069	0.05 to 0.5	Cc1cc(C(=O)NC2CC2)ccc1-c1cnc2c(NCC3CCOCC3)cc(NC3CCCC3)nn12 [Example 2-226]
0.0035	0.05 to 0.5	O=C(NC1CC1)c1ccc(-c2cnc3c(NCC4CCOCC4)cc(NC4CCCC4)nn23)c(F)c1 [Example 2-227]
0.0036	0.05 to 0.5	O=C(NC1CC1)c1ccc(-c2cnc3c(NCC4CCOCC4)cc(NC4CCCC4)nn23)cc1F [Example 2-228]
0.0044	0.05 to 0.5	O=C(NC1CC1)c1ccc(-c2cnc3c(NCC4CCOCC4)cc(NC4CCCC4)nn23)cc1O [Example 2-229]
0.0043	≤ 0.05	O=C(NC1CC1)c1ccc(-c2cnc3c(NCC4CCOCC4)cc(NC4CCCC4)nn23)cc1Cl [Example 2-230]
0.0057	0.05 to 0.5	O=C(NC1CC1)c1ccc(-c2cnc3c(NCC4CCOCC4)cc(NC4CCCC4)nn23)c(Cl)c1 [Example 2-231]
0.0028	0.05 to 0.5	Cc1cc(-c2cnc3c(NCC4CCOCC4)cc(NC4CCCC4)nn23)ccc1C(=O)NC1CC1 [Example 2-232]
0.0057	0.5 to 1	COc1cc(-c2cnc3c(NCC4CCOCC4)cc(NC4CCCC4)nn23)ccc1C(=O)NC1CC1 [Example 2-233]
0.145	1 to 10	O=C(NC1CC1)c1ccc(-c2nnc3c(NCC4CCOCC4)cc(NC4CCCC4)nn23)cc1 [Example 3-3, 4-(6-(Cyclopentylamino)-8-((tetrahydro-2H-pyran-4-yl)methylamino)-[1,2,4]triazolo[4,3-b]pyridazin-3-yl)-N-cyclopropylbenzamide]
